In patent US20030236218A1, “Aryl phosphate derivatives of d4T with selective activity against adenovirus and HIV” (priority 2002, published 2003):
Like-named read-outs stand apart in the source and are kept apart here.

Columns and labels:
[1] = system: herpes simplex virus (HSV) Type I strain HF; experiment: HSV-1 plaque formation assay in VERO cells; type: cell-based; conditions: Human alphaherpesvirus 1, HSV-1, Strain HF
Source text: (§1) Virus stocks. The HIV-1 strain used in this study was HTLV-IIIB (Uckun et al., 1998 Antimicro. Agents and Chemother., 42:383-388). The non-HIV viruses included in the present study were the gancyclovir-sensitive cytomegalovirus (CMV) strain AD169 (ATCC VR-538); acyclovir-sensitive herpes simplex virus (HSV) Type I strain HF (ATCC VR-260); acyclovir-sensitive HSV Type II strain G (ATCC VR-734); adenovirus strain Type 5, strain adenoid 75 (ATCC VR-5); enterovirus strain, ECHO 30, strain Bastianni (ATCC VR-322); and respiratory syncytial virus (RSV), strain Long (ATCC VR-26).
(§2) Plaque formation assays. Plaque assays were used to examine the activity of the compounds against non-HIV viruses. The skin fibroblast cell line SF (ATCC CRL-2097) was used as a target for AD169, Adenovirus Type 5. […] cell line (ATCC CCL-81) was used as a target for HSV HF and G. The HEP-2 cell line (ATCC CCL-23) was used as a target for the RSV strain Long. These cell lines were cultured at 1×10^5 cells/well in 24-well (all but ECHO 30-infected SF) or 6-well (ECHO 30-infected SF) tissue culture plates with 0.9% methylcellulose or 0.4% SeaPlaque agarose semisolid support. […] Percent inhibition of plaque formation was calculated by comparing the plaque numbers from the test substance-treated infected cells with the plaque numbers from untreated infected cells (i.e., virus controls). The IC50 values were determined using the Statview statistics program (SAS Institute, Inc., Cary, N.C.).
(§3) Statistical analysis. […] An IC50 value was calculated from each set of triplicate wells using nonlinear regression modeling of the exponential form of the linearized equation (Statview, SAS Institute, Inc., Cary, N.C.). […]
(§4) The skin fibroblast cell line SF (ATCC CRL-2097) was used as a target for AD169, Adenovirus Type 5, and ECHO 30; the VERO cell line (ATCC CCL-81) was used as a target for HF and G; and the HEP-2 cell line (ATCC CCL-23) was used as target for the RSV strain Long. Results are expressed as the average IC50 values in μM. […]

[2] = system: respiratory syncytial virus (RSV), strain Long; experiment: RSV plaque formation assay in HEP-2 cells; type: cell-based; conditions: human respiratory syncytial virus
Source text: as §1, §2, §3, §4

[3] = Pharmacokinetic studies in mice, intravenous administration; type: in vivo, Balb/c mice; conditions: for AUC: read-out: AUC (converted); for Vd: read-out: Vss; for Tmax: read-out: tmax (converted)
Method: Female Balb/c mice (6-8 weeks old) from Taconic (Germantown, N.Y.) were housed in a controlled environment (12-hours of light/12-hours of dark, 22±1° C., 60±10% relative humidity), which is fully accredited by the USDA. All rodents were housed in microisolator cages (Lab Products, Inc., NJ) containing autoclaved bedding. The mice were allowed free access to autoclaved pellet food and tap water throughout the study.
Blood samples (˜500 μL) were obtained from the ocular venous plexus by retro-orbital venipuncture at 0, 2, 5, 10, 15, 30, 45, 60, 120, 240 and 360 minutes after intravenous injection.
(§5) All collected blood samples were heparinized and centrifuged at 7000×g for 5 minutes to separate the plasma fraction from the whole blood. The plasma samples were then processed immediately using the extraction procedure described above.
(§6) Pharmacokinetic modeling and parameter calculations were carried out using the WinNonlin Professional Version 3.0 (Pharsight, Inc., Mountain, Calif.) pharmacokinetics software (Chen et al., Pharm. Res., 16, 1003 (1999); Chen et al., Pharm. Res., 16, 117 (1999); Chen et al., J. Clin. Pharmacol., 39, 1248 (1999); Uckun et al., Clin. Cancer Res., 5, 2954 (1999); and Uckun et al., J. Pharmacol. Exp. Ther., 291, 1301 (1999)). An appropriate model was chosen on the basis of the lowest sum of weighted squared residuals, the lowest Schwartz Criterion (SC), the lowest Akaike's Information Criterion (AIC) value, the lowest standard errors of the fitted parameters, and the dispersion of the residuals. The elimination half-life was estimated by linear regression analysis of the terminal phase of the plasma concentration-time profile. The area under the concentration-time curve (AUC) was calculated according to the linear trapezoidal rule between the first sampling time (0 hours) and the last sampling time plus C/k, where C is the concentration of the last sampling and k is the elimination rate constant. The systemic clearance (CL) was determined by dividing the dose by the AUC. The metabolic clearance of the parent drug, the formation clearance of the metabolite, the clearance elimination of the metabolite, and the distribution clearance of the metabolite were estimated by simultaneous fitting of the concentration of parent drug and metabolites as a function of time curve to pharmacokinetic models (see FIGS. 7A & 8A) specified as a system of differential equations (Gabrielsson & Weiner, Phamacokinetic/Phamacodynamic Data Analysis: Concepts and Applications, Swedish Pharmaceutical Press (1997)).

[4] = system: enterovirus strain, ECHO 30, strain Bastianni; experiment: Enterovirus plaque formation assay in SF cells; type: cell-based
Source text: as §1, §2, §3, §4

[5] = system: adenovirus strain Type 5, strain adenoid 75; experiment: Adenovirus plaque formation assay in skin fibroblast cell line SF; type: cell-based, human adenovirus
Source text: as §1
Plaque formation assays. Plaque assays were used to examine the activity of the compounds against non-HIV viruses. The skin fibroblast cell line SF (ATCC CRL-2097) was used as a target for AD169, Adenovirus Type 5. […] cell line (ATCC CCL-81) was used as a target for HSV HF and G. The HEP-2 cell line (ATCC CCL-23) was used as a target for the RSV strain Long. These cell lines were cultured at 1×10^5 cells/well in 24-well (all but ECHO 30-infected SF) or 6-well (ECHO 30-infected SF) tissue culture plates with 0.9% methylcellulose or 0.4% SeaPlaque agarose semisolid support. Minimum Essential Medium (MEM) with Earle's salts (Gibco), L-glutamine, non-essential amino acids, 2% heat-inactivated fetal bovine serum, 1% penicillin/streptomycin, and 0.05% gentamicin served as the culture medium. The incubation times were 3 days for HF, G, ECHO 30, and Long; and 7 days for AD169 and Adenovirus Type 5. Plaque counting was performed with a 20X dissecting microscope for AD169, Type 5, ECHO 30, and RSV Long, and with a light box for HF and G. The fixative agent was crystal violet for all viruses, except for the CMV strain AD169 for which methylene blue was used. Percent inhibition of plaque formation was calculated by comparing the plaque numbers from the test substance-treated infected cells with the plaque numbers from untreated infected cells (i.e., virus controls). The IC50 values were determined using the Statview statistics program (SAS Institute, Inc., Cary, N.C.).
Statistical analysis. Each drug was tested at 6-7 different concentrations ranging from 0.0001 μM to 100 μM. Each assay was set up in triplicate wells and repeated 1-3 times. An IC50 value was calculated from each set of triplicate wells using nonlinear regression modeling of the exponential form of the linearized equation (Statview, SAS Institute, Inc., Cary, N.C.). […] The IC50 values obtained were correlated to the log transformed hydrolysis rate constants by fitting a linear model (JMP Software, SAS Institute Inc., Cary, N.C.). P-values less than 0.05 were deemed significant.
The skin fibroblast cell line SF (ATCC CRL-2097) was used as a target for AD169, Adenovirus Type 5, and ECHO 30; the VERO cell line (ATCC CCL-81) was used as a target for HF and G; and the HEP-2 cell line (ATCC CCL-23) was used as target for the RSV strain Long. Results are expressed as the average IC50 values in μM. Stavudine (STV) was included as a control.

HIV-1 strain HTLV-IIIB = experiment: In vitro anti-HIV-1 activity, p24 antigen assay in PBMNC; type: cell-based; conditions: Human immunodeficiency virus 1, HIV-1, HTLV-IIIB, day 7
Source text: as §1
In vitro assays of anti-HIV-1 activity. Normal human peripheral blood mononuclear cells (PBMNC) from HIV-negative donors were cultured 72 hours in RPMI 1640 supplemented with 20% (v/v) heat-inactivated fetal bovine serum (FBS), 3% interleukin-2, 2 mM L-glutamine, 25 mM HEPES, 2 g/L NaHCO3, 50 Tg/mL gentamicin, and 4 Tg/mL phytohemagglutinin prior to exposure to HIV-1 at a multiplicity of infection (MOI) of 0.1 during a 1 hour adsorption period at 37° C. in a humidified 5% CO2 atmosphere. Subsequently, cells were cultured in 96-well microtiter plates (100 TL, 2×10^6 cells/mL) in the presence of various concentrations of compounds 113 or 609. Aliquots of culture supernatants were removed from the wells on the seventh day after infection for p24 antigen assays, as previously described. […] Percent viral inhibition was calculated by comparing the p24 values from untreated infected cells (i.e., virus controls).
Statistical analysis. […] An IC50 value was calculated from each set of triplicate wells using nonlinear regression modeling of the exponential form of the linearized equation (Statview, SAS Institute, Inc., Cary, N.C.). Hydrolysis rates were determined by fitting single exponential decay equations to the disappearance of the compound in alkali conditions (all R^2 values greater than 0.85). […]

[6] = Pharmacokinetic studies in mice, oral administration; type: in vivo, Balb/c mice
Method: Female Balb/c mice (6-8 weeks old) from Taconic (Germantown, N.Y.) were housed in a controlled environment (12-hours of light/12-hours of dark, 22±1° C., 60±10% relative humidity), which is fully accredited by the USDA. All rodents were housed in microisolator cages (Lab Products, Inc., NJ) containing autoclaved bedding. The mice were allowed free access to autoclaved pellet food and tap water throughout the study. All animal care procedures conformed to the Guide for the Care and Use of Laboratory Animals (National Research Council, National Academy Press, Washington D.C. 1996).
Sampling time points were 0, 2, 5, 10, 15, 30, 45, 60, 120, 240 and 360 minutes after the gavage.
as §5, §6

[7] = after i.v. compound 113, model fit, C.V. of modeling in parentheses
[8] = female, Balb/c, mouse, in vivo, iv, 100 mg/kg, plasma analyte = label, after i.v. 100 mg/kg compound 113, estimate from composite curve of pooled data
[9] = female, Balb/c, mouse, in vivo, iv, 100 mg/kg, plasma analyte = label, after i.v. 100 mg/kg compound 113, mean ± S.E.M
[10] = female, Balb/c, mouse, in vivo, iv
[11] = female, Balb/c, mouse, in vivo, iv, 40 mg/kg, after i.v. 40 mg/kg d4T, estimate from composite curve of pooled data
[12] = female, Balb/c, mouse, in vivo, iv, 40 mg/kg, after i.v. 40 mg/kg d4T, mean ± S.E.M
[13] = female, Balb/c, mouse, in vivo, iv, 75 mg/kg, plasma analyte = label, after i.v. 75 mg/kg Ala-d4T-MP, estimate from composite curve of pooled data
[14] = female, Balb/c, mouse, in vivo, iv, 75 mg/kg, plasma analyte = label, after i.v. 75 mg/kg Ala-d4T-MP, mean ± S.E.M

COC(=O)C(C)NP(=O)(OC[C@@H]1C=C[C@H](n2cc(C)c(=O)[nH]c2=O)O1)Oc1ccc(Br)cc1 (stereo partly shown) [Compound 113, 5′-[4-Bromophenyl methoxylaninylphosphate]-2′, 3′-didehydro-3′-deoxy thymidine]
IC50 [1]: > 100 µM | IC50 ([2]; HEp-2): > 100 µM | CLm1 (metabolic clearance of compound 113 / formation clearance of Ala-d4T-MP) [3, 7]: 83.9 mL/min/kg | CLm2 (metabolic clearance of compound 113 / formation clearance of d4T) [3, 7]: 87.4 mL/min/kg | AUC [3, 8]: 19 µM·h | Vd [3, 8]: 0.82 L/kg | Cmax [3, 9]: 212 µM | clearance [3, 9]: 174 mL/min/kg | half-life [3, 9]: 3.6 min | AUC [3, 9]: 17.9 µM·h | Vd [3, 9]: 0.92 L/kg | IC50 [4]: > 100 µM | IC50 ([5]; Adenovirus Type 5, 7 days, ± s.e., read-out: IC50, ADV-induced plaque formation): 0.0223 ± 0.009 µM | IC50 ([5]; Skin fibroblast, […], read-out: IC50, ADV-induced plaque formation, Adenovirus Type 5, 7 days, ± s.e.): 0.022 ± 0.009 µM | IC50 (HIV-1 strain HTLV-IIIB): 0.001 µM | plasma concentration of the parent ([6]; after oral 100 mg/kg compound 113, below the detection limit): < 0.5 µM

Cc1cn([C@H]2C=C[C@@H](CO)O2)c(=O)[nH]c1=O [d4T, 2′, 3′-Didehydro-3′-deoxy thymidine, reference compound]
IC50 [1]: > 100 µM | IC50 ([2]; RSV, Strain Long, HEP-2 cells, plaque assay, read-out: IC50): > 100 µM | CLme (elimination of d4T derived from Ala-d4T-MP) ([3]; after i.v. Ala-d4T-MP, model fit, C.V. of modeling in parentheses): 88.4 (13.0%) ml/min/kg | CLme2 (elimination of d4T from the body) [3, 7]: 47.1 (74.1%) ml/min/kg | CLme2 (elimination of d4T from the body) [3, 10]: 62.0 mL/min/kg | CLme (elimination of d4T derived from Ala-d4T-MP) [3, 10]: 88.4 mL/min/kg | fraction of parent converted to the metabolite [3, 10]: 15% | fraction of parent converted to the metabolite (fm) [3, 10]: 24% | Cmax [3, 11]: 280 µM | clearance [3, 11]: 15 mL/min/kg | half-life [3, 11]: 30.3 min | AUC [3, 11]: 204 µM·h | Vd [3, 11]: 0.658 L/kg | Cmax [3, 12]: 319 µM | clearance [3, 12]: 15.2 mL/min/kg | half-life [3, 12]: 26.6 min | Vd [3, 12]: 0.582 L/kg | Cmax [3, 13]: 35.2 µM | half-life [3, 13]: 34 min | AUC [3, 13]: 31.5 µM·h | Tmax [3, 13]: 4.4 min | Cmax [3, 14]: 35.9 µM | half-life [3, 14]: 32.4 min | AUC [3, 14]: 30.3 µM·h | Tmax [3, 14]: 5 min | Cmax [3, 8]: 15.7 µM | half-life [3, 8]: 115 min | AUC [3, 8]: 48.6 µM·h | Tmax [3, 8]: 18.7 min | half-life [3, 9]: 116 min | AUC [3, 9]: 47.6 µM·h | Tmax [3, 9]: 17.4 min | AUC ([3]; female, Balb/c, mouse, plasma, iv, after i.v. 40 mg/kg d4T, mean ± S.E.M): 203 µM·h | IC50 ([4]; ECHO 30, SF cells, plaque assay, read-out: IC50): > 100 µM | IC50 ([5]; Skin fibroblast, […], Adenovirus Type 5, 7 days, ± s.e., read-out: IC50, ADV-induced plaque formation): 12.3 ± 0.3 µM | IC50 (HIV-1 strain HTLV-IIIB): 0.023 ± 0.008 µM | half-life ([6]; mouse, in vivo, po, mice, orally administered d4T): 18 min | Tmax ([6]; mouse, in vivo, po, mice, orally administered d4T, read-out: tmax (converted)): 5 min | bioavailability ([6]; orally administered d4T): 98%
